For seven molecules, MIC results are on record in DBAASP.

Test in all cases: ≥ marks a high value that may be exact or a test limit, other limits are often not marked, values filed in µg/mL are converted to µM
Test [1] relates to Escherichia coli ATCC 25922.
The test system of test [2] is Mycobacterium tuberculosis H37Rv.
Test [3] deals with Mycobacterium tuberculosis.
Test [4] has as its system Staphylococcus aureus ATCC 25923.
Test [5] concerns Bacillus subtilis IFO 3134.
In test [6] the test system is Escherichia coli IFO 12734.
The subject of test [7] is Pseudomonas aeruginosa IFO 12582.
Test [8] has as its system Staphylococcus aureus IFO 12732.
Test [9] concerns Escherichia coli NBRC 14237.
The subject of test [10] is Micrococcus luteus NBRC 12708.
In test [11] the test system is Pseudomonas aeruginosa NBRC 12582.
In test [12] the test system is Staphylococcus aureus NBRC 12732.
In test [13] the test system is Acinetobacter calcoaceticus Ac11.
The subject of test [14] is Bacillus megaterium Bm11.
Test [15] deals with Bacillus subtilis ATCC 6051.
Test [16] has as its system Escherichia coli D21.
Test [17] concerns Micrococcus luteus ATCC 9341.
Test [18] concerns Pseudomonas aeruginosa ATCC 27853.
The subject of test [19] is Salmonella enterica subsp. enterica serovar Typhimurium LT2.
Test [20] concerns Aspergillus niger CECT 2694.
Test [21] deals with Fusarium oxysporum f. sp. lycopersici ATCC 201829.
Test [22] concerns Penicillium expansum EPS 26.
For test [23], the system named is Rhizopus stolonifer CECT 2344.
For test [24], the system named is Micrococcus luteus.
Test [25] concerns Pseudomonas aeruginosa ATCC 15692.
Test [26] concerns Saccharomyces cerevisiae.

In brackets after ≈: the same amount, converted by molar mass. Several values for one entry are separate records, joined by “and”; a condition that tells them apart may be missing. Equal entries are not always repeated.

Regarding `CC[C@H](C)[C@H](NC(=O)[C@H](CC(C)C)NC(=O)[C@H](CCCCN)NC(=O)[C@H](CC(C)C)NC(=O)[C@H](C)NC(=O)CNC(=O)[C@H](CCCCN)NC(=O)[C@H](C)NC(=O)[C@H](CC(C)C)NC(=O)[C@H](C)NC(=O)CNC(=O)[C@H](Cc1c[nH]c2ccccc12)NC(=O)[C@@H](N)Cc1ccccc1)C(=O)NCC(=O)N1CCC[C@H]1C(=O)NCC(=O)N[C@@H](CO)C(=O)N[C@@H](CC(C)C)C(=O)N[C@@H](Cc1ccccc1)C(=O)N[C@@H](CO)C(=O)N[C@@H](CO)C(=O)N[C@@H](Cc1ccccc1)C(=O)N[C@@H](CO)C(=O)N[C@@H](CCCCN)C(=O)N[C@@H](CCCCN)C(=O)N[C@@H](CC(=O)O)C(=O)O` [FWGALAKGALKLIGPGSLFSSFSKKD], the MIC in test [1] is 12.5 µM and 25 µM; in test [2], 29.4 µM (≈ 80.1 µg/mL); in test [3] it was 17.6 µM (≈ 48.1 µg/mL); in test [4], 12.5 µM and 25 µM.
For `CC[C@H](C)[C@H](NC(=O)[C@H](C)NC(=O)[C@@H]1CCCN1C(=O)[C@@H](NC(=O)[C@@H](NC(=O)[C@H](CCCCN)NC(=O)[C@H](C)NC(=O)[C@H](C)NC(=O)[C@@H](NC(=O)[C@H](CCCCN)NC(=O)[C@H](C)NC(=O)[C@H](CC(C)C)NC(=O)[C@@H](NC(=O)CNC(=O)[C@H](Cc1ccccc1)NC(=O)[C@H](CC(C)C)NC(=O)CN)C(C)C)C(C)C)C(C)C)C(C)C)C(=O)N[C@@H](C)C(=O)N[C@@H](CCCCN)C(=O)N[C@@H](Cc1cnc[nH]1)C(=O)N[C@@H](Cc1ccccc1)C(N)=O` [GLFGVLAKVAAKVVPAIAKHF], the MIC in test [5] was 2 µM (≈ 4.27 µg/mL); in [6], 8 µM (≈ 17.1 µg/mL); in test [7], 16 µM (≈ 34.2 µg/mL); in test [8] it was 4 µM (≈ 8.54 µg/mL).
Turning to `CC[C@H](C)[C@H](NC(=O)CNC(=O)[C@H](C)NC(=O)[C@H](CC(C)C)NC(=O)[C@H](CC(C)C)NC(=O)[C@H](CCCN=C(N)N)NC(=O)[C@@H]1CCCN1C(=O)[C@H](C)NC(=O)[C@H](CC(C)C)NC(=O)[C@H](CCCCN)NC(=O)[C@H](CC(C)C)NC(=O)[C@H](CC(C)C)NC(=O)[C@H](C)N)C(=O)N[C@@H](Cc1ccccc1)C(N)=O` [ALLKLAPRLLAGIF], the MIC was 12.5 µM (≈ 18.7 µg/mL) in [9], not below 50 µM in test [10], not below 50 µM in [11] and 12.5 µM (≈ 18.7 µg/mL) in [12].
With `CC[C@H](C)[C@H](N)C(=O)N[C@@H](CO)C(=O)N[C@@H](CO)C(=O)N1CCC[C@H]1C(=O)N[C@@H](CC(C)C)C(=O)N[C@@H](Cc1ccccc1)C(=O)N[C@@H](CCCCN)C(=O)N[C@H](C(=O)N[C@@H](CC(C)C)C(=O)N[C@@H](CC(C)C)C(=O)N[C@@H](CO)C(=O)N[C@@H](C)C(=O)N[C@H](C(=O)NCC(=O)N[C@@H](CO)C(=O)N[C@@H](C)C(=O)N[C@@H](CC(C)C)C(=O)N[C@@H](CO)C(=O)N[C@@H](CO)C(=O)N[C@@H](CO)C(=O)NCC(=O)NCC(=O)N[C@@H](CCC(N)=O)C(=O)N[C@@H](CCC(=O)O)C(=O)O)C(C)C)[C@@H](C)O` [ISSPLFKTLLSAVGSALSSSGGQE], the MIC in [13] was not below 100 µM; in [14], not below 100 µM; in test [15], not below 100 µM; in test [16], not below 100 µM; in test [17], not below 100 µM; in test [18], more than 100 µM. In test [19], this molecule had an MIC not below 100 µM.
For the molecule `CC[C@H](C)[C@H](NC(=O)[C@H](CCCCN)NC(=O)[C@H](CCCCN)NC(=O)[C@H](Cc1ccccc1)NC(=O)[C@H](CC(C)C)NC(=O)[C@H](CCCCN)NC(=O)[C@@H](N)Cc1ccccc1)C(=O)N[C@@H](CC(C)C)C(=O)N[C@@H](CCCCN)C(=O)N[C@H](C(=O)N[C@@H](CC(C)C)C(N)=O)C(C)C` [FKLFKKILKVL], the MIC in [20] was 22.4 µM (≈ 30.8 µg/mL); in test [21], 1.73 µM (≈ 2.38 µg/mL); in [22], not below 35.4 µM; in [23], not below 70.7 µM.
On to `CC(C)C[C@H](NC(=O)[C@H](CC(C)C)NC(=O)[C@H](CC(N)=O)NC(=O)[C@H](CO)NC(=O)CNC(=O)[C@@H](NC(=O)[C@H](CCCCN)NC(=O)[C@H](CC(C)C)NC(=O)CNC(=O)[C@@H](NC(=O)[C@H](CCCCN)NC(=O)[C@H](CC(C)C)NC(=O)[C@H](CC(C)C)NC(=O)[C@H](CO)NC(=O)CNC(=O)[C@H](CC(C)C)NC(=O)[C@H](CC(C)C)NC(=O)[C@@H](N)CC(N)=O)[C@@H](C)O)C(C)C)C(N)=O` [NLLGSLLKTGLKVGSNLL], for which the MIC is 128 µM (≈ 235 µg/mL) in [1]; 12.5 µM (≈ 23 µg/mL) in [9]; not below 50 µM in test [10]; 2 µM (≈ 3.68 µg/mL) in test [24]; not below 256 µM in test [25]; not below 50 µM in test [11]. Further, the MIC in [26] is not below 64 µM; in [4], 32 µM (≈ 58.9 µg/mL); in test [12], 12.5 µM (≈ 23 µg/mL).
For `CC[C@H](C)[C@H](NC(=O)[C@H](C)NC(=O)[C@@H]1CCCN1C(=O)[C@@H](NC(=O)[C@@H](NC(=O)[C@H](Cc1cnc[nH]1)NC(=O)[C@H](C)NC(=O)[C@H](C)NC(=O)[C@@H](NC(=O)[C@H](CCCCN)NC(=O)[C@H](C)NC(=O)[C@H](CC(C)C)NC(=O)[C@@H](NC(=O)CNC(=O)[C@H](Cc1ccccc1)NC(=O)[C@H](CC(C)C)NC(=O)CN)C(C)C)C(C)C)C(C)C)C(C)C)C(=O)N[C@@H](C)C(=O)N[C@@H](CCC(=O)O)C(N)=O` [GLFGVLAKVAAHVVPAIAE], the MIC in test [5], in [6], in test [7] and in [8] was not below 64 µM each time.

Broadly, the MIC is the lowest concentration found to suppress growth.
